Patent US9353076B2, “Crystal form of cabazitaxel and preparation method thereof” (Chongqing Taihao Pharmaceutical Co., Ltd., priority 2012, dated 2016)

Test: Accelerated stability test for a novel crystalline form of Cabazitaxel
Type: physicochemical

| Substance | Content (%) (0 month) | Moisture (%) (0 month) | The other maximum individual impurity (%) (0 month) | Total impurity (%) (0 month) | Content (%) (1 month) | Moisture (%) (1 month) | The other maximum individual impurity (%) (1 month) | Total impurity (%) (1 month) | Content (%) (2 months) | Moisture (%) (2 months) | The other maximum individual impurity (%) (2 months) | Total impurity (%) (2 months) | Content (%) (3 months) | Moisture (%) (3 months) | The other maximum individual impurity (%) (3 months) | Total impurity (%) (3 months) | Content (%) (6 months) | Moisture (%) (6 months) | The other maximum individual impurity (%) (6 months) | Total impurity (%) (6 months) |
| --- | --- | --- | --- | --- | --- | --- | --- | --- | --- | --- | --- | --- | --- | --- | --- | --- | --- | --- | --- | --- |
| 4-acetoxy-2α-benzoyloxy-5β,20-epoxy-1-hydroxy-7β,10β-dimethoxy-9-oxo-11-taxadiene-13α-yl(2R,3S)-3-tert-butoxycarbonylamino-2-hydroxy-3-phenyl-propionate [crystalline form G of Cabazitaxel] | 99.4% | 1.92% | 0.05% | 0.17% | 99.4% | 1.96% | 0.05% | 0.16% | 99.4% | 1.99% | 0.05% | 0.17% | 99.3% | 2.03% | 0.05% | 0.16% | 99.1% | 2.09% | 0.05% | 0.16% |
| 4-acetoxy-2α-benzoyloxy-5β,20-epoxy-1-hydroxy-7β,10β-dimethoxy-9-oxo-11-taxadiene-13α-yl(2R,3S)-3-tert-butoxycarbonylamino-2-hydroxy-3-phenyl-propionate [crystalline form I of Cabazitaxel] | 99.7% | 0.45% | 0.06% | 0.21% | 99.6% | 0.47% | 0.06% | 0.20% | 99.7% | 0.50% | 0.05% | 0.20% | 99.6% | 0.54% | 0.06% | 0.21% | 99.5% | 0.51% | 0.06% | 0.22% |
| 4-acetoxy-2α-benzoyloxy-5β,20-epoxy-1-hydroxy-7β,10β-dimethoxy-9-oxo-11-taxadiene-13α-yl(2R,3S)-3-tert-butoxycarbonylamino-2-hydroxy-3-phenyl-propionate [crystalline form J of Cabazitaxel] | 99.8% | 0.40% | 0.08% | 0.25% | 99.7% | 0.44% | 0.07% | 0.25% | 99.6% | 0.46% | 0.07% | 0.28% | 99.6% | 0.50% | 0.08% | 0.26% | 99.5% | 0.48% | 0.08% | 0.28% |
